Reference: PMC6442119, “The antitumor activity of CYB-L10, a human topoisomerase IB catalytic inhibitor” (Journal of Enzyme Inhibition and Medicinal Chemistry, 2019)

How the values were obtained:
[1] = Pharmacokinetic study in rat; assay type: in vivo; conditions: male, Sprague-Dawley, plasma, SD rats
Protocol: Blood samples (200 µL) were collected into heparinized tubes via the jugular vein at the following times: 0.083, 0.25, 0.5, 1, 2, 5, 7, and 24 h after dosing. Plasma samples (100 µL) were obtained after centrifugation for 10 min at 3000 rpm and stored at −20 °C until used for analysis. The plasma was detected through LC-MS/MS.
The in vivo pharmacokinetic (PK) study of CYB-L10 was conducted in SD rats. The SD rats were divided into two groups (n = 2) and treated by i.v. injection at 1 mg/kg dose and i.g. at 5 mg/kg dose, respectively. The plasma samples were collected up to 24 h postdose and measured for the concentration of CYB-L10. By i.v. administration, the AUC0→∞ was 241 ± 40 h·ng/mL, and T1/2 was 18.4 ± 5.12 h.

TOP1 = test system: TOP1; parameters: method as in PMID 26188908; conditions: compared with CPT; cited from earlier work
MCF-7/ADR = assay: MTT assay; assay type: cell-based, human
RC0.1 = assay: MTT assay
[2] = test system: 60 human clinical cancer cell lines (NCI60); assay: NCI60 assay, mean-graph midpoint; assay type: cell-based; conditions: NCI60, 48 h
Protocol: (§1) CYB-L10 was tested using the protocols by the NCI, which has been described previously. […] The overall antiproliferative potential is quantified as a mean-graph midpoint (MGM). […] It was selected and submitted to National Cancer Institute (NCI, USA) for a developmental therapeutics assay against the 60 clinical tumor cell lines representing nine tissue types (NCI60)[23–25]. The tumor cells were incubated with CYB-L10 for 48 h and stained with sulphorhodamine B dye. Cell growth inhibition (GI50) was calculated relative to the control without compound.

MCF-7 = assay: MTT assay; assay type: cell-based; conditions: Homo sapiens, MCF7; Parental cell line MCF-7, MTT, 72 h
TOP2 = assay: TOP2-mediated relaxation assay; assay type: biochemical; conditions: 25 μM, relaxation of supercoiled pBR322 DNA
Protocol: Figure S1. TOP2-mediated relaxation assay. Lane 1, supercoiled pBR322 DNA alone; Lane 2, DNA
and enzyme; Lanes 3, DNA, enzyme and the positive control etoposide (VP16) at 25 μM; Lanes 4,
DNA, enzyme and CYB-L10 at 25 μM. R: relaxed DNA. Sc: supercoiled DNA.
(1 picture or pasted object on this page, not shown here)

HCT116 cells = assay: Apoptosis analysis, flow cytometry annexin V-FITC/PI; assay type: cell-based, human; conditions: 9 μM, 24 h
Protocol: HCT116 cells (3.0 × 10^5 cells/mL) were grown in culture medium on 6-well plates and incubated in the presence or absence of CYB-L10 (1, 3, and 9 µM) for 24 h. And then, the cells were harvested and washed with cold PBS buffer, resuspended in 1 × binding buffer, and then stained with 5 µL Annexin V-FITC and 5 µL propidium iodide (KeyGEN BioTECH, Nanjing, China) for 15 min in dark. The stained cells were analyzed by using flow cytometry (BD, FACSCalibur, Franklin Lakes, NJ, USA) within 1 h. The experiments were repeated independently for three times.
To estimate the effect of CYB-L10 on apoptosis, flow cytometry analysis using double staining with annexin V-FITC/PI was carried out for HCT116 cells. […] CYB-L10 induced the major population of HCT116 cells into the late apoptotic stage 47.39% at 9 μM concentration.

UO-31 = assay: NCI60 assay; assay type: cell-based; conditions: Homo sapiens; Renal cancer, UO-31, 48 h
Protocol: as §1

MOLT-4 = assay: NCI60 assay; assay type: cell-based; conditions: Homo sapiens; Leukemia, MOLT-4, 48 h
Protocol: as §1

SN 12C = assay: NCI60 assay; assay type: cell-based; conditions: Homo sapiens, SN12C, Renal cancer, 48 h
Protocol: as §1

RPMI-8226 = assay: NCI60 assay; assay type: cell-based; conditions: Homo sapiens; Leukemia, RPMI-8226, 48 h
Protocol: as §1

UACC-257 = assay: NCI60 assay; assay type: cell-based; conditions: Homo sapiens; Melanoma, UACC-257, 48 h
Protocol: as §1

OVCAR-8 = assay: NCI60 assay; assay type: cell-based; conditions: Homo sapiens; Ovarian cancer, OVCAR-8, 48 h
Protocol: as §1

MDA-MB-468 = assay: NCI60 assay; assay type: cell-based; conditions: Homo sapiens; Breast cancer, MDA-MB-468, 48 h
Protocol: as §1

K-562 = assay: NCI60 assay; assay type: cell-based; conditions: Homo sapiens, K562; Leukemia, K-562, 48 h
Protocol: as §1

MDA-MB-435 = assay: NCI60 assay; assay type: cell-based; conditions: Homo sapiens; Melanoma, MDA-MB-435, 48 h
Protocol: as §1

SW-620 = assay: NCI60 assay; assay type: cell-based; conditions: Homo sapiens; Colon cancer, SW-620, 48 h
Protocol: as §1

HepG2 = assay: MTT assay; assay type: cell-based; conditions: Homo sapiens; Parental cell line HepG2, MTT, 72 h
DU-145 = assay: MTT assay; assay type: cell-based; conditions: Homo sapiens; Parental cell line DU-145, MTT, 72 h
HL-60 (TB) = assay: NCI60 assay; assay type: cell-based; conditions: Homo sapiens, Leukemia, 48 h
Protocol: The NCI60 (National Cancer Institute 60) tumor cell drug discovery panel was developed as a tool to assess the anticancer activity of compounds against a range of cell lines derived from nine cancer cell types, including hematological malignancies, lung, central nervous system, melanoma, colorectal, renal, breast, ovarian, and prostate[18]^,[23]^,[24]. CYB-L10 was tested using the protocols by the NCI, which has been described previously. […] The overall antiproliferative potential is quantified as a mean-graph midpoint (MGM).
It was selected and submitted to National Cancer Institute (NCI, USA) for a developmental therapeutics assay against the 60 clinical tumor cell lines representing nine tissue types (NCI60)[23–25]. The tumor cells were incubated with CYB-L10 for 48 h and stained with sulphorhodamine B dye. Cell growth inhibition (GI50) was calculated relative to the control without compound.

O=C1c2cccnc2C(=O)c2c1c(C(=O)OCCN1CCOCC1)c1ccccn21 [CYB-L10]
AUC(0-inf) ([1]; iv, i.v. 1 mg/kg): 241 ± 40 ng·h/mL | half-life ([1]; iv, i.v. 1 mg/kg): 18.4 ± 5.12 h | bioavailability ([1]; oral, i.g. 5 mg/kg vs i.v. 1 mg/kg, read-out: F (bioavailability)): 6.3% | AUC(0-inf) ([1]; po, i.g. 5 mg/kg): 76 ± 16.5 ng·h/mL | Cmax ([1]; po, i.g. 5 mg/kg): 24.7 ± 6.59 ng/mL | Tmax ([1]; po, i.g. 5 mg/kg): 0.46 ± 0.1 h | half-life ([1]; po, i.g. 5 mg/kg): 18.4 ± 7.77 h | TOP1 inhibition (TOP1): higher TOP1 inhibition than CPT | Resistance ratio (MCF-7/ADR; GI50 MCF-7/ADR / GI50 MCF-7): 6.6 | GI50 (MCF-7/ADR; Homo sapiens, NCI/ADR-RES, Resistant subline MCF-7/ADR, MTT, 72 h): 0.6 ± 0.21 µM | Resistance ratio (RC0.1; GI50 RC0.1 / GI50 DU-145): 40.6 | GI50 (RC0.1; Homo sapiens, 72 h, read-out: GI50 ± SD): 0.65 ± 0.01 µM | MGM (mean graph midpoint for growth inhibition of all human cancer cell lines) [2]: 0.050 µM | GI50 (MCF-7): 0.091 µM | inhibition against TOP2 (TOP2): very weak inhibition | A2 quadrant cells (late apoptotic stage) (HCT116 cells): 47.39% | GI50 (UO-31): 0.013 µM | GI50 (MOLT-4): 0.217 µM | GI50 (SN 12C): < 0.01 µM | GI50 (RPMI-8226): 0.166 µM | GI50 (UACC-257): 0.0546 µM | GI50 (OVCAR-8): 0.0281 µM | GI50 (MDA-MB-468): 1.82 µM | GI50 (K-562): 0.0282 µM | GI50 (MDA-MB-435): 0.0646 µM | GI50 (SW-620): < 0.01 µM | GI50 (HepG2): 0.065 ± 0.03 µM | GI50 (DU-145): 0.016 ± 0.01 µM | GI50 (HL-60 (TB)): 0.24 µM
